{
  "source": "patent US8309765B2",
  "about": "“Process for manufacture of high purity D-(−)-N,N-diethyl-2-(α-naphthoxy) propionamide” (United Phosphorus Limited, priority 2007, dated 2012)",
  "key": {"water solubility": {"assay": "water solubility", "assay_type": "physicochemical"}, "[1]": {"assay": "stability in the presence of UV radiation", "assay_type": "physicochemical"}, "certain weeds": {"system": "certain weeds", "conditions": "cited from earlier work"}},
  "data": [
    {"smiles": "CCN(CC)C(=O)C(C)Oc1cccc2ccccc12", "note": "(racemic) [Racemic form of -(−)-N,N-diethyl-2-(α-naphthoxy)propionamide, N,N-diethyl-2-(α-naphthoxy)propionamide, reference compound]", "values": [
      {"measurement": "solubility", "setting": "water solubility; water, at 20° C.", "value": 73, "unit": "µg/mL"},
      {"measurement": "stability in the presence of UV radiation / UV light, colour change", "setting": "[1]", "value": "decomposes in the presence of UV radiation with colour change"}
    ]},
    {"smiles": "CCN(CC)C(=O)[C@@H](C)Oc1cccc2ccccc12", "note": "[D-(−)-N,N-diethyl-2-(α-naphthoxy)propionamide]", "values": [
      {"measurement": "activity relative to the (L)-isomer", "setting": "certain weeds; (D)-isomer vs (L)-isomer", "value": 8, "unit": "times"},
      {"measurement": "activity relative to the racemic mixture", "setting": "certain weeds; (D)-isomer vs racemic mixture", "value": "1.7-2 times"},
      {"measurement": "water solubility", "setting": "water solubility", "value": 50, "unit": "mg/1 ltr"},
      {"measurement": "stability in the presence of UV radiation / UV light, colour change", "setting": "[1]", "value": "stable in the presence of UV light"}
    ]}
  ]
}
